{"source": "patent US20230201308A1", "about": "“TREATMENT OF CORONAVIRUS INFECTION WITH […]” (Eiger Biopharmaceuticals, Inc., priority 2020, published 2023)", "origin": "cited, not measured here", "test_system": "SARS-CoV-2", "settings": "BLAZE trial; placebo group 15%; cited from earlier work", "data": [{"substance": "bamlanivimab", "values": [{"measurement": "hospitalization in the treatment group", "value": "placebo group to 4% in the treatment group. Despite the more potent antiviral effect"}]}]}
